{
  "source": "patent US20220267719A1",
  "about": "“METHOD FOR LOADING OF MICROORGANISMS ON MULTIPHASE BIOMATERIALS” (priority 2019, published 2022)",
  "key": {"S. aureus [1]": {"system": "S. aureus", "test": "Agar diffusion test with loaded BNC fleeces", "type": "cell-based, Staphylococcus aureus", "method": "The evaluation of the antibacterial activity of B. subtilis and B. megaterium loaded-BNC against gram-positive S. aureus was determined by an agar diffusion test. Therefore, the bacterial suspensions of B. subtilis and S. aureus were prepared in TSB broth medium as described before. […] 3 BNC fleeces were loaded using B. subtilis suspension in TSB medium, and 3 BNC fleeces were loaded using B. subtilis suspension in saline. Further 3 BNC fleeces were loaded using the B. subtilis free-supernatant, 3 BNC fleeces were loaded with gentamycin as positive control, and 3 BNC fleeces with isotonic saline as negative control. The OD600 of S. aureus was adjusted to 0.5 McFarland using sterilized saline NaCl 0.9% and the optical density spectrophotometer (Biophotometer) was determined. 20 μl of S. aureus was spread on the surface of Mueller-Hinton agar plate by a sterilized glass spreader. The last control and loaded BNC fleeces were added onto surface of the Mueller Hinton agar: 1. Negative control: saline-loaded BNC 2. Positive control: gentamicin-loaded BNC 3. B. subtilis-loaded BNC in TSB medium 4. B. subtilis-loaded BNC in saline 5. B. subtilis-free supernatant-loaded BNC."}, "S. aureus [2]": {"system": "S. aureus", "test": "Agar well diffusion test without BNC", "type": "cell-based, Staphylococcus aureus", "method": "For the agar diffusion test the OD600 of B. megaterium and B. subtilis was adjusted to 0.1 McFarland using sterilized saline NaCl 0.9%. The OD600 of S. aureus was adjusted to 0.5 McFarland using sterilized saline NaCl 0.9%. 20 μl of S. aureus was spread on the surface of Mueller-Hinton agar plate by a sterilized glass spreader. The wells are […] on the agar plate using the back side of a 1 ml pipette tip. A small volume of Mueller-Hinton agar was melted in boiling water bath, then 100 μl of it was used to close the bottom of each created well. After solidification of the agar in the bottom of the wells, the wells were filled with 100 μl of: Negative control, sterilized saline NaCl 0.9%, Positive control, gentamicin 300 μg/ml, B. megaterium or B. subtilis-free supernatant, B. megaterium or B. subtilis suspension."}},
  "data": [
    {"substance": "gentamicin [Gentamycin]", "values": [
      {"measurement": "inhibition effect on S. aureus by diffusion test, on BNC - injection technique", "setting": "S. aureus [1]; loaded on BNC by injection", "result": "+ (by detection of inhibition zone > 2 mm)"},
      {"measurement": "inhibition effect on S. aureus by diffusion test, on BNC - spray technique", "setting": "S. aureus [1]; loaded on BNC by spray", "result": "+ (by detection of inhibition zone > 2 mm)"},
      {"measurement": "inhibition effect on S. aureus by diffusion test, on BNC - vortex technique", "setting": "S. aureus [1]; loaded on BNC by vortex", "result": "+ (by detection of inhibition zone > 2 mm)"},
      {"measurement": "inhibition effect on S. aureus by diffusion test, Without BNC", "setting": "S. aureus [2]", "result": "+ (by detection of inhibition zone > 2 mm)"}
    ]}
  ]
}
